Columns and labels:
Test in all cases: Test B pre-/postemergence plant response
Type in all cases: in vivo
[1] = tested on: ragweed (common ragweed, Ambrosia elatior)
Summary of the method: (§1)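 Ratings reflect visual comparison with untreated controls 13 to 15 days after application, from 0 (no effect) to 100 (complete control). Application was preemergence to seeded loam/sand soil or postemergence to 1- to 4-leaf plants, with compound in a non-phytotoxic, surfactant-containing solvent.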

[2] = tested on: velvetleaf (Abutilon theophrasti)
Summary of the method: as §1

[3] = tested on: soybean (Glycine max)
Summary of the method: as §1

[4] = tested on: bermudagrass (Cynodon dactylon)
Summary of the method: as §1

[5] = tested on: green foxtail (Setaria viridis)
Summary of the method: as §1

[6] = tested on: wheat (Triticum aestivum)
Summary of the method: as §1

[7] = tested on: lambsquarters (Chenopodium album)
Summary of the method: as §1

[8] = tested on: kochia (Kochia scoparia); settings: Postemergence
Summary of the method: as §1

[9] = tested on: goosegrass (Eleusine indica)
Summary of the method: as §1

[10] = tested on: large crabgrass (Digitaria sanguinalis)
Summary of the method: as §1

[11] = tested on: yellow nutsedge (Cyperus esculentus)
Summary of the method: as §1

[12] = tested on: johnsongrass (Sorghum halepense)
Summary of the method: as §1

[13] = tested on: woolly cupgrass (Eriochloa villosa)
Summary of the method: as §1

[14] = Postemergence, 31 g ai/ha, 0 to 100 scale (0 no effect, 100 complete control)
[15] = Postemergence, 62 g ai/ha, scale 0 to 100 (0 no effect, 100 complete control)
[16] = Postemergence, 250 g ai/ha, scale 0 to 100 (0 no effect, 100 complete control), 13 to 15 days
[17] = Preemergence, 31 g ai/ha, scale 0 to 100 (0 no effect, 100 complete control)
[18] = Preemergence, 62 g ai/ha, scale 0 to 100 (0 no effect, 100 complete control)
[19] = Preemergence, 125 g ai/ha, scale 0 to 100, 0 no effect, 100 complete control
[20] = Preemergence, 250 g ai/ha, 0 to 100 scale
[21] = Postemergence, 125 g ai/ha, scale 0 to 100 (0 no effect, 100 complete control)
[22] = 250 g ai/ha, Preemergence, 0 to 100 scale
[23] = Postemergence, 62 g ai/ha, scale 0 (no effect) to 100 (complete control), 13 to 15 days
[24] = Postemergence, 125 g ai/ha, visual rating after 13 to 15 days, scale 0 (no effect) to 100 (complete control)
[25] = Preemergence, 125 g ai/ha, 0 to 100 scale
[26] = Postemergence, 31 g ai/ha, scale 0 to 100 (0 no effect, 100 complete control)
[27] = Postemergence, 250 g ai/ha, scale 0 to 100

## CCc1ccc(-n2c(-c3ccccc3)ncc(C(=O)C3=C(O)CCCC3=O)c2=O)cc1 [Compound 219]
[1]; [14]
  Plant response rating, Ragweed: 80
[1]; [15]
  Plant response rating, Ragweed: 98
[1]; [16]
  Plant response rating, Ragweed: 100
[1]; [17]
  Plant response rating, Ragweed: 45
[1]; [18]
  Plant response rating, Ragweed: 75
[1]; [19]
  Plant response rating, Ragweed: 85
[1]; [20]
  Ragweed plant response rating: 98
[2]; [14]
  Plant response rating, Velvetleaf: 85
[2]; [15]
  Plant response rating, Velvetleaf: 90
[2]; [16]
  Plant response rating, Velvetleaf: 98
[2]; [17]
  Plant response rating, Velvetleaf: 0
[2]; [18]
  Plant response rating, Velvetleaf: 75
[2]; [19]
  Plant response rating, Velvetleaf: 90
[2]; [20]
  Velvetleaf plant response rating: 95
[3]; [14]
  Plant response rating, Soybean: 95
[3]; [15]
  Plant response rating, Soybean: 98
[3]; [16]
  Plant response rating, Soybean: 100
[3]; [17]
  Plant response rating, Soybean: 0
[3]; [18]
  Plant response rating, Soybean: 0
[3]; [19]
  Plant response rating, Soybean: 65
[3]; [20]
  Soybean plant response rating: 75
[4]; [14]
  Plant response rating, Bermudagrass: 95
[4]; [15]
  Plant response rating, Bermudagrass: 98
[4]; [21]
  Plant response rating, Bermudagrass: 100
[4]; [16]
  Plant response rating, Bermudagrass: 100
[4]; [17]
  Plant response rating, Bermudagrass: 98
[4]; [18]
  Plant response rating, Bermudagrass: 100
[4]; [19]
  Plant response rating, Bermudagrass: 100
[4]; Preemergence, 250 g ai/ha, 0 to 100 scale, 0 no effect, 100 complete control
  Bermudagrass plant response rating: 100
[5]; [14]
  Plant response rating, Foxtail, Green: 70
[5]; [15]
  Plant response rating, Foxtail, Green: 80
[5]; [21]
  Plant response rating, Foxtail, Green: 90
[5]; [16]
  Plant response rating, Foxtail, Green: 90
[5]; [17]
  Plant response rating, Foxtail, Green: 20
[5]; [18]
  Plant response rating, Foxtail, Green: 70
[5]; [19]
  Plant response rating, Foxtail, Green: 90
[5]; [20]
  Foxtail, Green plant response rating: 100
[6]; [14]
  Plant response rating, Wheat: 40
[6]; [15]
  Plant response rating, Wheat: 50
[6]; [16]
  Plant response rating, Wheat: 50
[6]; [17]
  Plant response rating, Wheat: 0
[6]; [18]
  Plant response rating, Wheat: 0
[6]; [19]
  Plant response rating, Wheat: 0
[6]; [20]
  Wheat plant response rating: 0
[7]; [14]
  Plant response rating, Lambsquarters: 100
[7]; [15]
  Plant response rating, Lambsquarters: 100
[7]; [21]
  Plant response rating, Lambsquarters: 100
[7]; [16]
  Plant response rating, Lambsquarters: 100
[7]; [17]
  Plant response rating, Lambsquarters: 100
[7]; [18]
  Plant response rating, Lambsquarters: 100
[7]; [19]
  Plant response rating, Lambsquarters: 100
[7]; [20]
  Lambsquarters plant response rating: 100
[8]; 31 g ai/ha, 0 to 100 scale (0 no effect, 100 complete control)
  Plant response rating, Kochia: 80
[8]; 62 g ai/ha, scale 0 to 100 (0 no effect, 100 complete control)
  Plant response rating, Kochia: 98
[8]; 125 g ai/ha, scale 0 to 100 (0 no effect, 100 complete control)
  Plant response rating, Kochia: 98
[8]; 250 g ai/ha, scale 0 to 100 (0 no effect, 100 complete control), 13 to 15 days
  Plant response rating, Kochia: 100
[9]; [14]
  Plant response rating, Goosegrass: 90
[9]; [15]
  Plant response rating, Goosegrass: 95
[9]; [21]
  Plant response rating, Goosegrass: 95
[9]; [16]
  Plant response rating, Goosegrass: 95
[9]; [17]
  Plant response rating, Goosegrass: 98
[9]; [18]
  Plant response rating, Goosegrass: 100
[9]; [19]
  Plant response rating, Goosegrass: 100
[9]; [20]
  Goosegrass plant response rating: 100
[10]; [14]
  Plant response rating, Crabgrass, Large: 90
[10]; [15]
  Plant response rating, Crabgrass, Large: 95
[10]; [21]
  Plant response rating, Crabgrass, Large: 95
[10]; [16]
  Plant response rating, Crabgrass, Large: 98
[10]; [17]
  Plant response rating, Crabgrass, Large: 10
[10]; [18]
  Plant response rating, Crabgrass, Large: 98
[10]; [19]
  Plant response rating, Crabgrass, Large: 100
[10]; [20]
  Crabgrass, Large plant response rating: 100
[11]; [14]
  Plant response rating, Nutsedge, Yellow: 10
[11]; [15]
  Plant response rating, Nutsedge, Yellow: 55
[11]; [21]
  Plant response rating, Nutsedge, Yellow: 70
[11]; [16]
  Plant response rating, Nutsedge, Yellow: 85
[11]; [17]
  Plant response rating, Nutsedge, Yellow: 0
[11]; [18]
  Plant response rating, Nutsedge, Yellow: 45
[11]; [19]
  Plant response rating, Nutsedge, Yellow: 85
[11]; [20]
  Nutsedge, Yellow plant response rating: 90
[12]; [15]
  Plant response rating, Johnsongrass: 60
[12]; [21]
  Plant response rating, Johnsongrass: 98
[12]; [16]
  Plant response rating, Johnsongrass: 100
[12]; [17]
  Plant response rating, Johnsongrass: 0
[12]; [18]
  Plant response rating, Johnsongrass: 15
[12]; [19]
  Plant response rating, Johnsongrass: 65
[12]; [20]
  Johnsongrass plant response rating: 80
[13]; [14]
  Plant response rating, Cupgrass, Woolly: 85
[13]; [15]
  Plant response rating, Cupgrass, Woolly: 85
[13]; [21]
  Plant response rating, Cupgrass, Woolly: 95
[13]; [16]
  Plant response rating, Cupgrass, Woolly: 98
[13]; [17]
  Plant response rating, Cupgrass, Woolly: 0
[13]; [18]
  Plant response rating, Cupgrass, Woolly: 10
[13]; [19]
  Plant response rating, Cupgrass, Woolly: 20
[13]; [20]
  Cupgrass, Woolly plant response rating: 80

## Cc1ccccc1-n1c(-c2cccc(Cl)c2)ncc(C(=O)C2=C(O)CCCC2=O)c1=O [Compound 36]
[1]; [22]
  Plant response rating, Ragweed: 90
[1]; [23]
  Plant response rating, Ragweed: 90
[1]; [24]
  Plant response rating, Ragweed: 95
[1]; [17]
  Plant response rating, Ragweed: 35
[1]; [25]
  Ragweed plant response rating: 85
[2]; [22]
  Plant response rating, Velvetleaf: 100
[2]; [23]
  Plant response rating, Velvetleaf: 100
[2]; [24]
  Plant response rating, Velvetleaf: 100
[2]; [17]
  Plant response rating, Velvetleaf: 65
[2]; [25]
  Velvetleaf plant response rating: 100
[3]; [22]
  Plant response rating, Soybean: 40
[3]; [23]
  Plant response rating, Soybean: 98
[3]; [24]
  Plant response rating, Soybean: 100
[3]; [17]
  Plant response rating, Soybean: 0
[3]; [25]
  Soybean plant response rating: 0
[4]; [22]
  Plant response rating, Bermudagrass: 100
[4]; [26]
  Plant response rating, Bermudagrass: 90
[4]; [23]
  Plant response rating, Bermudagrass: 98
[4]; [24]
  Plant response rating, Bermudagrass: 100
[4]; [27]
  Bermudagrass plant response rating: 100
[4]; [17]
  Plant response rating, Bermudagrass: 95
[4]; [18]
  Plant response rating, Bermudagrass: 100
[4]; [25]
  Bermudagrass plant response rating: 100
[5]; [22]
  Plant response rating, Foxtail, Green: 85
[5]; [26]
  Plant response rating, Foxtail, Green: 85
[5]; [23]
  Plant response rating, Foxtail, Green: 90
[5]; [24]
  Plant response rating, Foxtail, Green: 90
[5]; [27]
  Foxtail, Green plant response rating: 90
[5]; [17]
  Plant response rating, Foxtail, Green: 35
[5]; [18]
  Plant response rating, Foxtail, Green: 80
[5]; [25]
  Foxtail, Green plant response rating: 85
[6]; [22]
  Plant response rating, Wheat: 0
[6]; [23]
  Plant response rating, Wheat: 5
[6]; [24]
  Plant response rating, Wheat: 5
[6]; [17]
  Plant response rating, Wheat: 0
[6]; [25]
  Wheat plant response rating: 0
[7]; [22]
  Plant response rating, Lambsquarters: 100
[7]; [23]
  Plant response rating, Lambsquarters: 100
[7]; [24]
  Plant response rating, Lambsquarters: 100
[7]; [27]
  Lambsquarters plant response rating: 100
[7]; [17]
  Plant response rating, Lambsquarters: 98
[7]; [18]
  Plant response rating, Lambsquarters: 100
[7]; [25]
  Lambsquarters plant response rating: 100
[8]; 62 g ai/ha, scale 0 (no effect) to 100 (complete control), 13 to 15 days
  Plant response rating, Kochia: 0
[8]; 125 g ai/ha, visual rating after 13 to 15 days, scale 0 (no effect) to 100 (complete control)
  Plant response rating, Kochia: 60
[8]; 250 g ai/ha, scale 0 to 100
  Kochia plant response rating: 65
[9]; [22]
  Plant response rating, Goosegrass: 100
[9]; [23]
  Plant response rating, Goosegrass: 85
[9]; [24]
  Plant response rating, Goosegrass: 90
[9]; [27]
  Goosegrass plant response rating: 95
[9]; [17]
  Plant response rating, Goosegrass: 0
[9]; [25]
  Goosegrass plant response rating: 95
[10]; [22]
  Plant response rating, Crabgrass, Large: 100
[10]; [26]
  Plant response rating, Crabgrass, Large: 90
[10]; [23]
  Plant response rating, Crabgrass, Large: 95
[10]; [24]
  Plant response rating, Crabgrass, Large: 95
[10]; [27]
  Crabgrass, Large plant response rating: 98
[10]; [17]
  Plant response rating, Crabgrass, Large: 20
[10]; [18]
  Plant response rating, Crabgrass, Large: 90
[10]; [25]
  Crabgrass, Large plant response rating: 100
[11]; [22]
  Plant response rating, Nutsedge, Yellow: 75
[11]; [23]
  Plant response rating, Nutsedge, Yellow: 20
[11]; [24]
  Plant response rating, Nutsedge, Yellow: 25
[11]; [17]
  Plant response rating, Nutsedge, Yellow: 0
[11]; [25]
  Nutsedge, Yellow plant response rating: 40
[12]; [22]
  Plant response rating, Johnsongrass: 85
[12]; [23]
  Plant response rating, Johnsongrass: 75
[12]; [24]
  Plant response rating, Johnsongrass: 85
[12]; [27]
  Johnsongrass plant response rating: 100
[12]; [17]
  Plant response rating, Johnsongrass: 0
[12]; [18]
  Plant response rating, Johnsongrass: 65
[12]; [25]
  Johnsongrass plant response rating: 80
[13]; [22]
  Plant response rating, Cupgrass, Woolly: 65
[13]; [26]
  Plant response rating, Cupgrass, Woolly: 85
[13]; [23]
  Plant response rating, Cupgrass, Woolly: 90
[13]; [24]
  Plant response rating, Cupgrass, Woolly: 95
[13]; [27]
  Cupgrass, Woolly plant response rating: 98
[13]; [17]
  Plant response rating, Cupgrass, Woolly: 0
[13]; [18]
  Plant response rating, Cupgrass, Woolly: 0
[13]; [25]
  Cupgrass, Woolly plant response rating: 10

Source: patent US8952024B2, “Herbicidal pyrimidone derivatives” (E I du Pont de Nemours and Company, priority 2009, dated 2015)
